Key:
Format in all cases: cell-based
MDA−MB−231 3D networks = experiment: 3D bioprinted culture cytotoxicity (WST-1); conditions: 72 h, mean ± SEM
Description: (§1) To evaluate the cytotoxic effect of platinum(II) and (IV) complexes in 3D cell culture, MDA−MB−231 or HT29 cells were used to bioprint networks or spheroids with the non-contact drop-on-demand 3D RASTRUM bioprinter (Inventia Life Science, Alexandria, NSW, Australia). The 3D cultures use two constituents: bioink and activator. Cell pellets (2 × 10^6 cells) were resuspended in an activator reagent which forms an instant gel after its addition to the bioink by the bioprinter. The 3D large plug cell model with polyethylene glycol bioinks formulated to mimic the properties of in vivo tissue were chosen as follows. Matrix Px02.31 (activator F177 and bioink F242 with RGD: Fibronectin) was used for MDA−MB−231 3D embedded networks, Px02.00 (activator F177 and bioink F119 without RGD additives, Table S1) was used for MDA−MB−231 spheroids and matrix #Px02.09 (activator F177 and bioink F236 with adhesion peptides including, RGD: Fibronectin, and GFOGER: collagen type I to recapitulate rich in vivo tissue extracellular environments) was used for HT29 spheroids (Inventia Life Science) (Table S1). Each cell line was printed at 10,000 cells/well and loaded with the bioink fluids into the selected printer cartridge. After the automated priming of all fluids into the printer nozzles, each cell line was individually printed on tissue culture plates (Nunc^TM MicroWell^TM 96-Well, Nunclon Delta-Treated, Flat-Bottom Microplate, ThermoFisher #167008), with RASTRUM creating the 3D Large Plug across the 96-well plate. Following completion of the print run, 200 μL DMEM culture medium was added to each well using multichannel pipettes. The plate was then incubated for 7 days (humidified incubator with 5% CO2 at 37 °C) for compact and homogenous spheroid formation before the cytotoxicity assay. When the spheroids developed, post-7-day incubation, media was removed and replaced with 100 µL DMEM. […] Cytotoxicity was then assessed using the WST-1 assay as previously described in Section 2.3.

HT29 spheroids = experiment: 3D bioprinted spheroid cytotoxicity (WST-1); conditions: 72 h, mean ± SEM
Description: as §1

MDA−MB−231 spheroids = experiment: 3D bioprinted spheroid cytotoxicity (WST-1); conditions: 72 h, mean ± SEM
Description: as §1

HT29 cells [1] = experiment: Western blot protein expression; conditions: HT29, IC50, 72 h; for β-actin/GAPDH normalized to control (1): representative blot Figure S28A; for β-tubulin/GAPDH normalized to control (1): representative blot Figure S28B; for α-tubulin/GAPDH normalized to control (1): representative blot Figure S28C; for p-AKT/AKT/GAPDH normalized to control (1): representative blot Figure S29A; for p-ERK/ERK/GAPDH normalized to control (1): representative blot Figure S29B; for p53/GAPDH normalized to control (1): representative blot Figure S29C; for p21/GAPDH normalized to control (1): representative blot Figure S29D; for Bax/GAPDH normalized to control (1): representative blot Figure S30A; for Bcl2/GAPDH normalized to control (1): representative blot Figure S30B; for Cyt C/GAPDH normalized to control (1): representative blot Figure S30C; for Procaspase 8/GAPDH normalized to control (1): representative blot Figure S30D; for Cleaved BID/GAPDH normalized to control (1): representative blot Figure S30E; for Procaspase 9/GAPDH normalized to control (1): representative blot Figure S30F; for Cleaved caspase 3/GAPDH normalized to control (1) / Procaspase 3/GAPDH normalized to control (1): representative blot Figure S30G; for Cleaved PARP-1/GAPDH normalized to control (1) / PARP-1/GAPDH normalized to control (1): representative blot Figure S30H; for Beclin1/GAPDH normalized to control (1): representative blot Figure S31A; for ATG5/GAPDH normalized to control (1): representative blot Figure S31B; for ATG16L1/GAPDH normalized to control (1): representative blot Figure S31C; for ATG9A/GAPDH normalized to control (1): representative blot Figure S31D; for ATG4B/GAPDH normalized to control (1): representative blot Figure S31E; for LC3B/GAPDH normalized to control (1): representative blot Figure S31F
Description: Protein extraction was then performed on ice. Media were collected in Eppendorf tubes, and centrifuged at 500× g for 5 min at 4 °C. Meanwhile, 200 µL of lysis RIPA buffer, made up of 150 mM NaCl, 50 mM Tris-HCl, pH 8.0, 0.1% Triton X-100, 0.5% sodium deoxycholate, 0.1% SDS and 1 mM sodium orthovanadate, was added to each well, the cells were scrapped into the buffer, and added to the media-derived pellets. The tubes were placed on the shaker for 10 min at 4 °C. Then, cell extracts were centrifuged at 12,000× g for 15 min at 4 °C, and the supernatants (containing the proteins) were collected. The Bio-Rad-DC protein assay (Bio-Rad, Hercules, CA, USA) was used to assess protein content. Laemmli protein sample buffer (4×) with β-mercaptoethanol (9%) was used to prepare a final protein concentration of 20 µg. The samples were then heated at 100 °C for 5 min. A final volume of 30 µL of each sample was added per well and subjected to SDS-PAGE using Bolt 4–12% Bis-Tris gel (Thermo Fisher, Eugene, OR, USA) at 80 V for 30 min and then 120 V for 60 min with PageRuler™ Prestained Protein or SeeBlue Prestained Protein Ladder (Thermo Fisher, Eugene, OR, USA). Proteins were subsequently transferred to a 0.2 µm PVDF membrane (Amersham, Cytiya) using a semi-dry blot transfer. The membrane was then blocked in 5% BSA in TBST, for 1 h and probed overnight at 4 °C with primary antibodies against several cell proliferation, apoptotic, anti-apoptotic, microtubule and autophagic protein markers listed in Table S7 as per the manufacturer’s protocol. The primary antibody was then removed, washed three times for 10 min with TBST and then membranes were treated with either mouse or rabbit HRP-coupled secondary antibodies (1/3000) for 1 h and 30 min. Protein band detection was then performed using the chemiluminescence ECL kit (Thermo Fisher, Eugene, OR, USA). Blot images were obtained using the Odyssey® FC imaging system (LI-COR Biosciences, Lincoln, NE, USA) and band intensities were quantified relatively to glyceraldehyde-3-phosphate dehydrogenase (GAPDH) and then normalised each replicate gel to its corresponding no treatment control using the ImageJ v1.53t software (National Institutes of Health, Bethesda, MD, USA). Each marker results from the same experiment or parallel experiment where the gels were processed in parallel. Three independent experiments per marker were conducted.

MDA−MB−231 cells = experiment: DCFDA cellular ROS detection assay; conditions: complexes at IC50, TBHP 20 µM
Summary of the method: (§2)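 Cells seeded at 2500 cells/well overnight, then loaded with 25 µM DCFH-DA for 45 min. DCF fluorescence (ex/em 485/535 nm, RFU) read at multiple time points; 20 µM TBHP served as positive control. Three independent experiments in triplicate.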

HT29 cells [2] = experiment: DCFDA cellular ROS detection assay; conditions: complexes at IC50, TBHP 20 µM
Summary of the method: as §2

| Compound | IC50 (MDA−MB−231 3D networks) [µM] | IC50 (HT29 spheroids) [µM] | IC50 (MDA−MB−231 spheroids) [µM] | β-actin/GAPDH normalized to control (1) (HT29 cells [1]) | β-tubulin/GAPDH normalized to control (1) (HT29 cells [1]) | α-tubulin/GAPDH normalized to control (1) (HT29 cells [1]) | p-AKT/AKT/GAPDH normalized to control (1) (HT29 cells [1]) | p-ERK/ERK/GAPDH normalized to control (1) (HT29 cells [1]) | p53/GAPDH normalized to control (1) (HT29 cells [1]) | p21/GAPDH normalized to control (1) (HT29 cells [1]) | Bax/GAPDH normalized to control (1) (HT29 cells [1]) | Bcl2/GAPDH normalized to control (1) (HT29 cells [1]) | Cyt C/GAPDH normalized to control (1) (HT29 cells [1]) | Procaspase 8/GAPDH normalized to control (1) (HT29 cells [1]) | Cleaved BID/GAPDH normalized to control (1) (HT29 cells [1]) | Procaspase 9/GAPDH normalized to control (1) (HT29 cells [1]) | Cleaved caspase 3/GAPDH normalized to control (1) (HT29 cells [1]) | Procaspase 3/GAPDH normalized to control (1) (HT29 cells [1]) | Cleaved PARP-1/GAPDH normalized to control (1) (HT29 cells [1]) | PARP-1/GAPDH normalized to control (1) (HT29 cells [1]) | also measured |
| --- | --- | --- | --- | --- | --- | --- | --- | --- | --- | --- | --- | --- | --- | --- | --- | --- | --- | --- | --- | --- | --- |
| N.N.[Cl][Pt][Cl] [Cisplatin, cisplatin] | 16 ± 1.49 | 445 ± 5.09 | 48.5 ± 1.62 | 0.6345 | 0.8003 | 0.8201 | 0.288 | 1.125 | 0.9507 | 2.964 | 1.81 | 0.5659 | 2.419 | 0.004029 | 2.527 | 0.6388 | 11.81 | 1.2 | 3.484 | 0.8236 | Beclin1/GAPDH normalized to control (1) (HT29 cells [1]): 3.89; ATG5/GAPDH normalized to control (1) (HT29 cells [1]): 1.193; ATG16L1/GAPDH normalized to control (1) (HT29 cells [1]): 1.173; ATG9A/GAPDH normalized to control (1) (HT29 cells [1]): 2.212; ATG4B/GAPDH normalized to control (1) (HT29 cells [1]): 1.101; LC3B/GAPDH normalized to control (1) (HT29 cells [1]): 3.233; ROS production (MDA−MB−231 cells; MDA−MB−231, 24 h): 279.82 RFU; ROS production (MDA−MB−231 cells; MDA−MB−231, 48 h): 325.96 RFU; ROS production (MDA−MB−231 cells; MDA−MB−231, 72 h): 369.97 RFU; ROS production (HT29 cells [2]; HT29, 24 h): 205.39 RFU; ROS production (HT29 cells [2]; HT29, 48 h): 285.11 RFU; ROS production (HT29 cells [2]; HT29, 72 h): 316.55 RFU |
| N[C@H]1CCCC[C@@H]1N.O=[N+]([O-])[O-].O=[N+]([O-])[O-].[OH-].[OH-].[Pt+4].c1cnc2c(c1)ccc1cccnc12 [[Pt(1,10-phenanthroline)(1S,2S-diaminocyclohexane)(dihydroxy)](NO3)2] | 6.18 ± 1.62 | 11.4 ± 1.31 | 13.5 ± 1.25 | 0.8943 | 0.8137 | 0.4054 | 1.011 | 1.229 | 4.543 | 3.293 | 3.388 | 1.194 | 7.091 | 0.9474 | 2.711 | 0.5927 | 1.017 | 1.141 | 2.239 | 0.6475 | Beclin1/GAPDH normalized to control (1) (HT29 cells [1]): 8.006; ATG5/GAPDH normalized to control (1) (HT29 cells [1]): 0.3102; ATG16L1/GAPDH normalized to control (1) (HT29 cells [1]): 4.093; ATG9A/GAPDH normalized to control (1) (HT29 cells [1]): 1.203; ATG4B/GAPDH normalized to control (1) (HT29 cells [1]): 0.9049; LC3B/GAPDH normalized to control (1) (HT29 cells [1]): 2.232; ROS production (MDA−MB−231 cells; MDA−MB−231, 24 h): 196.62 RFU; ROS production (MDA−MB−231 cells; MDA−MB−231, 48 h): 256.83 RFU; ROS production (MDA−MB−231 cells; MDA−MB−231, 72 h): 275.09 RFU; ROS production (HT29 cells [2]; HT29, 24 h): 182.77 RFU; ROS production (HT29 cells [2]; HT29, 48 h): 217.33 RFU; ROS production (HT29 cells [2]; HT29, 72 h): 242.44 RFU |

From publication PMC11274883, “Anticancer Effect of Pt^[sequence], Pt^II5MESS, Pt^II56MESS and Their Platinum(IV)-Dihydroxy Derivatives against Triple-Negative Breast Cancer and Cisplatin-Resistant Colorectal Cancer” (Cancers, 2024)
